Legend:
[1] = molecular target: Dopamine receptors; D2 & D3 (Homo sapiens) (UniProt P14416+P35462); experiment: Ratio of D3 receptor to the D2 receptor; assay type: protein assay
D(3) dopamine receptor = D(3) dopamine receptor (Homo sapiens, UniProt P35462); experiment: Binding affinity, displacement of [125I]iodosulpiride from human Dopamine receptor D3 expressed in CHO cells; assay type: cell-based
D(2) dopamine receptor = D(2) dopamine receptor (Homo sapiens, UniProt P14416); experiment: Binding affinity, displacement of [125I]iodosulpiride from human Dopamine receptor D2 expressed in CHO cells; assay type: cell-based
Chain of D(2) dopamine receptor (P14416 whole entry): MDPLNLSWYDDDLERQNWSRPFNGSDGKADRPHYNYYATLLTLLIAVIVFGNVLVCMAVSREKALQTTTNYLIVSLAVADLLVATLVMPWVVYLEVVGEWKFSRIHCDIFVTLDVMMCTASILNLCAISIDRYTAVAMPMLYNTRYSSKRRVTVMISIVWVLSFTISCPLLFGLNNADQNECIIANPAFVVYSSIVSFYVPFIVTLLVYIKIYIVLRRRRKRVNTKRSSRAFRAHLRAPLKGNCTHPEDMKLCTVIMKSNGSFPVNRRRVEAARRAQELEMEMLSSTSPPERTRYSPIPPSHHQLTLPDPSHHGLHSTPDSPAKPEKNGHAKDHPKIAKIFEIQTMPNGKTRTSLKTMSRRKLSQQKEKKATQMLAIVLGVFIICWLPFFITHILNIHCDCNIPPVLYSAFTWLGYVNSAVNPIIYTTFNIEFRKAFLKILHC

Chain of D(3) dopamine receptor (P35462 whole entry): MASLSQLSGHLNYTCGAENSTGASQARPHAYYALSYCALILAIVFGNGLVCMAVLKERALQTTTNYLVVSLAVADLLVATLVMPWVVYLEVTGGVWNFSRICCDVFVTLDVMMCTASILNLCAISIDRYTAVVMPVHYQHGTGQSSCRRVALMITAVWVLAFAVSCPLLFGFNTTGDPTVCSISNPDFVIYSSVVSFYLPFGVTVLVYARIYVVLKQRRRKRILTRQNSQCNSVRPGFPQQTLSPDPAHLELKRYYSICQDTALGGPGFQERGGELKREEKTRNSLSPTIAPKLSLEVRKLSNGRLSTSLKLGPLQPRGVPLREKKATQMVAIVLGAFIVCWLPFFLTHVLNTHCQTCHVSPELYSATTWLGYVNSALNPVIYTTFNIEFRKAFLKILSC

CCN(Cc1ccc(-c2cc(S(=O)(=O)CC)ccc2OC)[nH]1)[C@@H](C)c1ccccc1
Ratio [1]: 10
Ki (D(3) dopamine receptor): 2.51 nM
Ki (D(2) dopamine receptor): 25.1 nM

CCN(Cc1ccccc1)Cc1ccc(-c2cc(S(=O)(=O)CC)ccc2OC)[nH]1
Ratio [1]: 3

CCN(Cc1cccc(C)c1)Cc1ccc(-c2cc(S(=O)(=O)CC)ccc2OC)[nH]1
Ratio [1]: 5
Ki (D(3) dopamine receptor): 1.58 nM
Ki (D(2) dopamine receptor): 7.94 nM

CCS(=O)(=O)c1ccc(OC)c(-c2ccc(CN3CCCCCC3c3ccc(OC)cc3)[nH]2)c1 (stereo not drawn)
Ratio [1]: 15
Ki (D(3) dopamine receptor): 1.58 nM
Ki (D(2) dopamine receptor): 25.1 nM

CCS(=O)(=O)c1ccc(OC)c(-c2ccc(CN3CCCCCC3c3cccc(OC)c3)[nH]2)c1 (stereo not drawn)
Ratio [1]: 15
Ki (D(3) dopamine receptor): 50.1 nM
Ki (D(2) dopamine receptor): 794 nM

CCN1[C@H](c2ccccc2)CC[C@H]1c1ccc(-c2cc(S(=O)(=O)CC)ccc2OC)[nH]1
Ratio [1]: 4
Ki (D(3) dopamine receptor): 10 nM
Ki (D(2) dopamine receptor): 39.8 nM

CCN(Cc1ccc(-c2cc(S(=O)(=O)CC)ccc2OC)[nH]1)Cc1ccccc1Cl
Ratio [1]: 3
Ki (D(3) dopamine receptor): 6.31 nM
Ki (D(2) dopamine receptor): 20 nM

CCS(=O)(=O)c1ccc(OC)c(-c2ccc(CN3CCCCCC3c3ccccc3C)[nH]2)c1 (stereo not drawn)
Ratio [1]: 10
Ki (D(3) dopamine receptor): 100 nM
Ki (D(2) dopamine receptor): 1260 nM

CCN(Cc1ccc(-c2cc(S(=O)(=O)CC)ccc2OC)[nH]1)[C@H](C)c1ccccc1
Ratio [1]: 10
Ki (D(3) dopamine receptor): 0.794 nM
Ki (D(2) dopamine receptor): 7.94 nM

CCN(Cc1ccc(C)cc1)Cc1ccc(-c2cc(S(=O)(=O)CC)ccc2OC)[nH]1
Ratio [1]: 2
Ki (D(3) dopamine receptor): 0.2 nM
Ki (D(2) dopamine receptor): 0.398 nM

CCS(=O)(=O)c1ccc(OC)c(-c2ccc(CN3CCCCCC3c3ccc(C)cc3)[nH]2)c1 (stereo not drawn)
Ratio [1]: 30
Ki (D(3) dopamine receptor): 0.794 nM
Ki (D(2) dopamine receptor): 25.1 nM

CCN(Cc1cccc(OC)c1)Cc1ccc(-c2cc(S(=O)(=O)CC)ccc2OC)[nH]1
Ratio [1]: 10
Ki (D(3) dopamine receptor): 7.94 nM
Ki (D(2) dopamine receptor): 79.4 nM

CCN(Cc1ccc(-c2cc(S(=O)(=O)CC)ccc2OC)[nH]1)Cc1ccccc1OC
Ki (D(3) dopamine receptor): 10 nM
Ki (D(2) dopamine receptor): 15.8 nM

CCN1[C@@H](c2ccc(-c3cc(S(=O)(=O)CC)ccc3OC)[nH]2)CC[C@H]1c1ccccc1
Ki (D(3) dopamine receptor): 100 nM
Ki (D(2) dopamine receptor): 158 nM

CCN(Cc1ccc(-c2cc(S(=O)(=O)CC)ccc2OC)[nH]1)Cc1ccccc1C
Ratio [1]: 2
Ki (D(3) dopamine receptor): 3.16 nM
Ki (D(2) dopamine receptor): 6.31 nM

CCN(Cc1ccc(-c2cc(S(=O)(=O)CC)ccc2OC)[nH]1)C1CCCc2ccccc21 (stereo not drawn)
Ratio [1]: 3
Ki (D(3) dopamine receptor): 5.01 nM
Ki (D(2) dopamine receptor): 12.6 nM

CCS(=O)(=O)c1ccc(OC)c(-c2ccc(C3CCCN3Cc3ccccc3)[nH]2)c1 (stereo not drawn)
Ratio [1]: 4
Ki (D(3) dopamine receptor): 10 nM
Ki (D(2) dopamine receptor): 39.8 nM

CCN(Cc1ccc(-c2cc(S(=O)(=O)CC)ccc2OC)[nH]1)C1CCc2ccccc21 (stereo not drawn)
Ki (D(3) dopamine receptor): 0.794 nM
Ki (D(2) dopamine receptor): 0.794 nM

CCS(=O)(=O)c1ccc(OC)c(-c2ccc(CN3CCc4ccccc4C3)[nH]2)c1
Ratio [1]: 3
Ki (D(3) dopamine receptor): 31.6 nM
Ki (D(2) dopamine receptor): 100 nM

CCS(=O)(=O)c1ccc(OC)c(-c2ccc(CN3CCCCCC3c3ccccc3)[nH]2)c1 (stereo not drawn)
Ratio [1]: 30

CCN(Cc1ccc(OC)c(OC)c1)Cc1ccc(-c2cc(S(=O)(=O)CC)ccc2OC)[nH]1
Ratio [1]: 3
Ki (D(3) dopamine receptor): 12.6 nM
Ki (D(2) dopamine receptor): 31.6 nM

CCN(Cc1ccc2c(c1)OCO2)Cc1ccc(-c2cc(S(=O)(=O)CC)ccc2OC)[nH]1
Ratio [1]: 5
Ki (D(3) dopamine receptor): 0.631 nM
Ki (D(2) dopamine receptor): 3.16 nM

CCN(Cc1cccc(Cl)c1)Cc1ccc(-c2cc(S(=O)(=O)CC)ccc2OC)[nH]1
Ratio [1]: 4
Ki (D(3) dopamine receptor): 2.51 nM
Ki (D(2) dopamine receptor): 10 nM

CCN(Cc1ccc(OC)cc1)Cc1ccc(-c2cc(S(=O)(=O)CC)ccc2OC)[nH]1
Ratio [1]: 8
Ki (D(3) dopamine receptor): 0.251 nM
Ki (D(2) dopamine receptor): 2 nM

CCN(Cc1ccc(Cl)cc1)Cc1ccc(-c2cc(S(=O)(=O)CC)ccc2OC)[nH]1
Ratio [1]: 3
Ki (D(3) dopamine receptor): 0.398 nM
Ki (D(2) dopamine receptor): 1 nM

Reference: ChEMBL document CHEMBL1129831, “Novel 2,5-disubstituted-1H-pyrroles with high affinity for the dopamine D3 receptor: N-benzyl modifications” (Bioorg Med Chem Lett, 1997)
